In US9682993B2, “Anticancer compounds” (ST. JUDE CHILDREN'S RESEARCH HOSPITAL, priority 2012, dated 2017):

What was measured:
[1] = system: MDM2 alternative splicing in Rh18 cells; assay: In vitro alternative splicing assay (MDM2, RT-PCR); type: cell-based; conditions: Rh18, 8 h, PCR (FIG. 9)
Method: Briefly, following an 8 h exposure of exponentially growing cells to drug, total RNA was isolated using TRIzol reagent (Invitrogen, Carlsbad, Calif.). Total RNA (1 μg) was used to convert the mRNA to cDNA by using random primers, Oligo(dT)16 and Omniscript Reverse Transcription Kit (Qiagen, Germantown, Md.). PCR analyses were performed using specific oligonucleotides (see Table I) and standard amplification protocols. PCR products were separated by agarose gel electrophoresis, visualized by ethidium bromide staining on an UV transilluminator, and recorded. PCR band sizes were calculated by comparing them to the standard EZ Load 100-bp PCR Molecular Ruler (BioRad Laboratories, Hercules, Calif.).

HeLa = assay: Drug combination assay, HeLa; type: cell-based; conditions: HeLa cells; combined with AUDA (15 μM)
Method: Preliminary cytotoxic screenings for each drug used in drug combination assays were performed to determine their cytotoxic dose range. […] Eight concentrations were established by 1:3 serial dilutions of the single drugs and their combinations with the splicing modulators. All drug concentrations were evaluated in triplicate in 96-well cell culture plates. Assays of individual drugs and drug combinations were run on the same tissue culture plate. Cell viability was determined using the CellTiter-Glo reagent. Drug interactions, in terms of synergism, additive effect, or antagonism, were based on the drugs' Combination Index (CI) (Chou et al., Adv. Enzyme Regul. 1984, 22, 27).
Luminescence data obtained from the cell viability determinations were formatted per the requirements of the analytical software (viability data range: >0 and <1). The formatted data were analyzed with the software CalcuSyn 2.1 (Biosoft, Cambridge, UK), which provides quantitative CI values for the drug interaction analyses (see ranges in Supplementary Table S2). […] Therefore, in these two cases the drug interaction was evaluated by comparing the IC50 value of Sudemycin with that of the IC50 values resulting from the serial dilutions of the splicing modulator combined with a constant dose of the non-toxic drug.

[2] = In vivo plasma pharmacokinetic study in C.B-17 scid mice
Method: A sensitive and specific LC-MS/MS assay was developed for quantification of compound 20 in plasma for application in a murine pharmacokinetic study. Calibrators and quality controls (QCs) were prepared using 100% methanol stocks in blank C.B-17 scid mouse plasma with lithium heparin anticoagulant. The calibrators and QCs, 25 μL each, were stored briefly on wet ice and then protein precipitated with 75 μL of ice cold compound 19 internal standard processing solution. The supernatants, 100 μL of each, were mixed with 100 μL of methanol-10 mM ammonium bicarbonate, pH 7.0 (50:50 v/v) and injected from the 96-well plate to the LC-MS/MS system via a CTC HTS PAL autosampler. Chromatography was performed using a Phenomenex Synergi Fusion-RP C18 column ([…], 50 mm×2.0 mm) maintained at 35° C., and a linear gradient mobile phase consisting of water:methanol:acetonitrile ([…], v/v) to methanol: acetonitrile (70:30, v/v) and back. […] Detection was performed with an AB Sciex 5500 QTRAP LC-MS/MS System equipped with a Turbo IonSpray® source using the positive multiple-reaction monitoring (MRM) mode. The transitions monitored included m/x 475->288 for compound 20 and m/x 489->400 for compound 19, which served as an internal standard. The lower limit of quantitation was 1 ng/mL (5× S:N ration, <20% CV); intra-run precision and accuracy was ≦11.2% CV and 96.5-103%, respectively. The calibration curve was linear from 1 to 500 ng/mL (R=0.9968) and QC samples above the limit of quantitation (500 ng/mL) were precisely and accurately diluted into the linear range with blank C.B-17 scid mouse plasma.
A plasma PK study of compound 20 in male C.B-17 scid mice receiving a continuous i.v. infusion of compound 20 (100 mg/kg over 30 min) was performed. Compound 20 was formulated in 15% Captisol®/50 mM Na2HPO4/NaH2PO4 solution at 3 mg/mL and infused with a syringe pump at a rate of 20 μL/min via a jugular vein catheter. Blood samples (1 to 2 samples per mouse, 18 samples from 11 total mice) were collected by either retro-orbital sinus bleeding or terminal cardiac puncture at the following times after the start of infusion: 7.5, 15, 30 (end of infusion), 35, 45, and 60 minutes. The samples were immediately processed to plasma by centrifugation at 2000 g for 5 min; the resultant volume of plasma was then protein precipitated with a 3:1 volume of ice cold IS processing solution. The supernatants were immediately placed on dry ice and then stored at −80° C. until analysis.
The concentration-time data for compound 20 in mice was analyzed using the MLEM population estimation method as implemented in ADAPTS (D'Argenio, D. Z. and Schumitzky, A., Wang ADAPT 5 User's Guide: Pharmacokinetic/Pharmacodynamic Systems Analysis Software; Biomedical Simulations Resource: Los Angeles, Calif., USA, 2009). A linear, one-compartment PL model was fit to the data, and the adequacy of the fit was assessed by the −2 log likelihood value, visual predictive checks, and the residual plots. Inter-individual variability in plasma clearance (CL) and volume of distributions (V) was assumed to be log-normally distributed with the covariance matrix constrained to diagonal elements. The residual, intra-individual error was described using an additive and proportional model, with the additive term fixed to the lower limit of quantitation of the LC-MS/MS assay (LLOQ, 1 ng/mL). Beal's M3 method was used to handle data that was below the LLOQ (Beal, S. L., J. Pharmacokinet. Pharmacodyn. 2001, 28, 481). Other secondary parameters, such as the area under the plasma concentration-time curve to infinity (AUCinf), maximum plasma concentration (Cmax), and the time of Cmax (Tmax) were derived for the population using standard formulae (Pharmacokinetics, Second Edition; Gibaldi, M.; Perrier, D., Eds.; 2nd ed.; CRC Press, 1982).

[3] = male, C.B-17 scid, mouse, plasma, iv, 100 mg/kg, i.v. infusion over 30 min, population

## CNC(=O)O[C@@H](C)/C=C\C(=O)N[C@H]1CC[C@@H](C/C=C(C)/C=C/[C@@H]2C[C@]3(CO3)CC(C)(C)O2)CC1 [compound 20, (S,Z)-5-(((1R,4R)-4-((2E,4E)-5-((3R,5S)-7,7-Methyl-1,6-Dioxaspiro[2.5]Octan-5-Yl)-3-Methylpenta-2,4-Dien-1-Yl)Cyclohexyl)Amino)-5-Oxopent-3-En-2-Yl Methylcarbamate]
[1]
  alternative MDM2 splicing: induction of alternative MDM2 splicing
HeLa
  effect of soluble epoxide hydrolase inhibition on IC50: improves the IC50
[2]; i.v. infusion over 30 min
  mean CL relative to hepatic blood flow: 3 fold
[2]; i.v. infusion over 30 min, population mean
  V: 0.877 L/kg
[2]; [3]
  AUC(0-inf): 12.5 µM·h
  Cmax: 24.1 µM
  Tmax: 30 min
[2]; male, C.B-17 scid, mouse, plasma, iv, 100 mg/kg, i.v. infusion over 30 min, population mean terminal elimination half-life
  half-life: 2.18 min
[2]; male, C.B-17 scid, mouse, plasma, iv, i.v. infusion over 30 min (100 mg/kg, 50 mg/kg elsewhere in the source), population mean
  clearance: 16.8 L/h/kg
[2]; target far exceeded and maintained for an adequate time period
  plasma concentration versus target plasma concentration: > 0.5 µM
